For 15 molecules, DC50 and IC50 results are on record in US20240360146A1, “BRUTON'S TYROSINE KINASE AND MUTANT DEGRADER, COMPOSITION AND APPLICATION THEREOF” (HANGZHOU HEALZEN THERAPEUTICS CO., LTD., priority 2021, published 2024).

Common to all, as to type: cell-based
For one experiment, the target named is T1, BTK (Homo sapiens, UniProt Q06187).
T1 construct: endogenous in cells; host or cells: Mino cells
Description: BTK degradation activity test in Mino cells. As to conditions: 16 h incubation, Western blot or Elisa. The essentials:
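DC50 derived by curve fitting of BTK degradation rates versus untreated control across compound concentrations. Mino cells were exposed for 16 h; BTK levels in lysates, normalised via BCA protein, measured by Western blot or ELISA.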
In general terms: A western blot detects proteins with antibodies after separation by electrophoresis.

For the next experiment, the system named is OCI-LY10 cells. Description: Inhibitory activity on OCI-LY10 cell proliferation (MTS). As to conditions: Homo sapiens, 72 h. How it is done:
(§1) The anti-tumor efficacy of the compounds was tested by measuring their inhibitory effects on OCI-LY10 and Mino cell proliferation. OCI-LY10 and Mino cells were cultured in RPMI-1640 medium containing 10% fetal calf serum. OCI-LY10 and Mino cells were digested, inoculated in a 96-well plate at a cell concentration of 10000 cells/well, and incubated overnight at 37° C., 5% CO2. Compounds of different concentrations (1000 nM, 4-fold dilution, 8 points) were added to the 96-well plate and incubated for 72 h (LY10) or 168 h (Mino) at 37° C. and 5% CO2, and then 20 uL of MTS was added to each well. After incubation for 2 h, 25 μl of 10% SDS was added to each well to terminate the reaction. The absorbance at 490 nm and 650 nm were measured with a microplate reader. IC50 was calculated using GraphPad Prism 5.0.

The subject of the next experiment is Mino cells. Briefly: Inhibitory activity on Mino cell proliferation (MTS). As to conditions: Homo sapiens, 168 h incubation. The protocol:
as §1

T1 sequence (Q06187 whole entry): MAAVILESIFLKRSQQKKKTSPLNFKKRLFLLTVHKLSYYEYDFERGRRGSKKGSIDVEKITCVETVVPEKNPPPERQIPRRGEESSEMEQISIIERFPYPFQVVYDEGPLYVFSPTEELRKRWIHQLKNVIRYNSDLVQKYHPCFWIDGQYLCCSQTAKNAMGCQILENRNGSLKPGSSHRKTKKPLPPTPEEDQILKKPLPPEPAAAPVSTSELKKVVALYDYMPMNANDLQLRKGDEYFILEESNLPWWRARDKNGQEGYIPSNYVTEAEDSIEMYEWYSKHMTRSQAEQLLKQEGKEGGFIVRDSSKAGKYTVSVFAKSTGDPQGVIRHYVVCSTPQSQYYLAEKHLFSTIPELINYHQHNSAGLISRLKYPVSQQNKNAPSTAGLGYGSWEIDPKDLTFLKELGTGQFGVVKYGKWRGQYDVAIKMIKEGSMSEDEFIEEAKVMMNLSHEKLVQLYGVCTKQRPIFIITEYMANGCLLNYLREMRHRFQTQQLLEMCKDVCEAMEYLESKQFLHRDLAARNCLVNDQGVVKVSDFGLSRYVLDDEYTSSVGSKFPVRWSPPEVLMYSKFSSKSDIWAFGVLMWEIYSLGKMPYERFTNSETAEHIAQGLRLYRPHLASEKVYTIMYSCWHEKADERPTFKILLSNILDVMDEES

Regarding `CN1CCN(C2CC3CC2N(c2cnc(C(N)=O)c(Nc4ccc(C5CCN(CC6CCN(c7ccc8c(c7)C(=O)N(C7CCC(=O)NC7=O)C8=O)CC6)CC5)cc4)n2)C3)C1=O` (stereo not drawn) [Compound 118, 3-((4-(1-((1-(2-(2,6-dioxopiperidin-3-yl)-1,3-dioxoisoindolin-5-yl)piperidin-4-yl)methyl)piperidin-4-yl)phenyl)amino)-5-(6-(3-methyl-2-oxoimidazolin-1-yl)-2-azabicyclo[2.2.1]heptan-2-yl)pyrazin-2-carboxamide], at BTK, the DC50 (in general, the midpoint of the concentration-degradation curve) was less than 1 nM. Besides, the IC50 – broadly, the concentration needed to halve the response being measured – with OCI-LY10 cells was 0.27 nM; with Mino cells, 10.7 nM.
As for `CN1CCN([C@@H]2CCCN(c3nnc(C(N)=O)c(Nc4ccc(N5CCN(CC6CCN(c7ccc8c9c(oc8c7)C(=O)N(C7CCC(=O)NC7=O)C9)CC6)CC5)c(F)c4)n3)C2)C1=O` (stereo partly drawn) [Compound 223, 5-((4-(4-((1-(2-(2,6-dioxopiperidin-3-yl)-3-oxo-2,3-dihydro-H-benzofuro[2,3-c]pyrrol-6-yl)piperidin-4-yl)methyl)piperazin-1-yl)-3-fluorophenyl)amino)-3-((R)-3-(3-methyl-2-oxoimidazolidin-1-yl)piperidin-1-yl)-1,2,4-triazin-6-carboxamide], the DC50 on BTK was less than 1 nM. Moreover, the IC50 with OCI-LY10 cells is 2.55 nM.
As to `CN1CCN([C@@H]2CCCN(c3nnc(C(N)=O)c(Nc4ccc(N5CCN(CC6CCN(c7cc8c(cc7F)C(=O)N(C7CCC(=O)NC7=O)C8=O)CC6)CC5)c(F)c4)n3)C2)C1=O` (stereo partly drawn) [Compound 170, 5-((4-(4-((1-(2-(2,6-dioxopiperidin-3-yl)-6-fluoro-1,3-dioxoisoindolin-5-yl)piperidin-4-yl)methyl)piperazin-1-yl)-3-fluorophenyl)amino)-3-((R)-3-(3-methyl-2-oxoimidazolidin-1-yl)piperidin-1-yl)-1,2,4-triazin-6-carboxamide], on BTK, the DC50 was less than 1 nM. In addition, the IC50 with OCI-LY10 cells turned out to be 1.25 nM; in the experiment on Mino cells, 4.64 nM.
On to `Cc1cc(N2CCC(CN3CCC(c4ccc(Nc5nc(N6CCC[C@@H](N7CCN(C)C7=O)C6)nnc5C(N)=O)cc4)CC3)CC2)ccc1N1CCC(=O)NC1=O` [Compound 236, (R)-5-((4-(1-((1-(4-(2,4-dioxotetrahydropyrimidin-1(2H)-yl)-3-methylphenyl)piperidin-4-yl)methyl)piperidin-4-yl)phenyl)amino)-3-(3-(3-methyl-2-oxoimidazolidin-1-yl)piperidin-1-yl)-1,2,4-triazin-6-carboxamide], for which the DC50 on BTK is less than 1 nM. The same molecule returned an IC50 in the experiment on OCI-LY10 cells of 0.63 nM.
`CN1CCN([C@@H]2CCCN(c3ncc(C(N)=O)c(Nc4ccc(N5CCN(CC6CCN(c7ccc8c(c7)C(=O)N(C7CCC(=O)NC7=O)C8=O)C6)CC5)cc4)n3)C2)C1=O` (stereo partly drawn) [Compound 115, 4-((4-(4-((1-(2-(2,6-dioxopiperidin-3-yl)-1,3-dioxoisoindolin-5-yl)pyrrolidin-3-yl)methyl)piperazin-1-yl)phenyl)amino)-2-((R)-3-(3-methyl-2-oxoimidazolin-1-yl)piperidin-1-yl)pyrimidin-5-carboxamide] came in with a DC50 at BTK of less than 1 nM. Also, the IC50 in the experiment with OCI-LY10 cells stood at 0.59 nM; in the experiment on Mino cells it was 5.97 nM.
With `CN1CCN([C@@H]2CCCN(c3nnc(C(N)=O)c(Nc4ccc(N5CCC(CN6CCN(c7cc8c(cc7F)C(=O)N(C7CCC(=O)NC7=O)C8=O)CC6)CC5)cc4)n3)C2)C1=O` (stereo partly drawn) [Compound 125, 5-((4-(4-((4-(2-(2,6-dioxopiperidin-3-yl)-6-fluoro-1,3-dioxoisoindolin-5-yl)piperazin-1-yl)methyl)piperidin-1-yl)phenyl)amino)-3-((R)-3-(3-methyl-2-oxoimidazolin-1-yl)piperidin-1-yl)-1,2,4-triazin-6-carboxamide], the DC50 at BTK is less than 1 nM. The concentration for half-maximal inhibition (IC50) with OCI-LY10 cells was determined as 1.83 nM.
For `CN1CCN([C@@H]2CCCN(c3nnc(C(N)=O)c(Nc4ccc(N5CCN(CC#Cc6ccc(C(=O)NC7CCC(=O)NC7=O)nc6)CC5)c(F)c4)n3)C2)C1=O` (stereo partly drawn) [Compound 224, 5-((4-(4-(3-(6-((2,6-dioxopiperidin-3-yl)carbamoyl)pyridin-3-yl)propan-2-yn-1-yl)piperazin-1-yl)-3-fluorophenyl)amino)-3-((R)-3-(3-methyl-2-oxoimidazolidin-1-yl)piperidin-1-yl)-1,2,4-triazin-6-carboxamide] the same measures were less than 1 nM and 2.25 nM.
At BTK, `CN1CCN([C@@H]2CCCN(c3nnc(C(N)=O)c(Nc4ccc(C5CCN(CC6CCN(c7ccc(N8CCC(=O)NC8=O)cc7)CC6)CC5)c(F)c4)n3)C2)C1=O` [Compound 234, (R)-5-((4-(1-((1-(4-(2,4-dioxotetrahydropyrimidin-1(2H)-yl)phenyl)piperidin-4-yl)methyl)piperidin-4-yl)-3-fluorophenyl)amino)-3-(3-(3-methyl-2-oxoimidazolidin-1-yl)piperidin-1-yl)-1,2,4-triazin-6-carboxamide] gave a DC50 of less than 1 nM. Besides, the IC50 in the experiment on OCI-LY10 cells amounted to 1.78 nM.
For `CN1CCN([C@@H]2CCCN(c3nnc(C(N)=O)c(Nc4ccc(N5CCN(CC#Cc6ccc7c(c6)n(C)c(=O)n7C6CCC(=O)NC6=O)CC5)c(F)c4)n3)C2)C1=O` (stereo partly drawn) [Compound 227, 5-((4-(4-(3-(1-(2,6-dioxopiperidin-3-yl)-3-methyl-2-oxo-2,3-dihydro-1H-benzo[d]imidazol-5-yl)propan-2-yn-1-yl)piperazin-1-yl)-3-fluorophenyl)amino)-3-((R)-3-(3-methyl-2-oxoimidazolidin-1-yl)piperidin-1-yl)-1,2,4-triazin-6-carboxamide] the same measures were less than 1 nM and 0.27 nM.
In turn, `CN1CCN([C@@H]2CCCN(c3nnc(C(N)=O)c(Nc4ccc(N5CCN(CC6CCN(c7ccc8c(c7)n(C)c(=O)n8C7CCC(=O)NC7=O)CC6)CC5)c(F)c4)n3)C2)C1=O` (stereo partly drawn) [Compound 219, 5-((4-(4-((1-(1-(2,6-dioxopiperidin-3-yl)-3-methyl-2-oxo-2,3-dihydro-H-benzo[d]imidazol-5-yl)piperidin-4-yl)methyl)piperazin-1-yl)-3-fluorophenyl)amino)-3-((R)-3-(3-methyl-2-oxoimidazolidin-1-yl)piperidin-1-yl)-1,2,4-triazin-6-carboxamide] showed a DC50 on BTK of less than 1 nM. In addition, 2.74 nM corresponded to half-maximal inhibition with Mino cells (IC50).
For `CN1CCN([C@@H]2CCCN(c3nnc(C(N)=O)c(Nc4ccc(N5CCN(CC6CCN(c7ccc(N8CCC(=O)NC8=O)cc7F)CC6)CC5)c(F)c4)n3)C2)C1=O` [Compound 186, (R)-5-((4-(4-((1-(4-(2,4-dioxotetrahydropyrimidin-1(2H)-yl)-2-fluorophenyl)piperidin-4-yl)methyl)piperazin-1-yl)-3-fluorophenyl)amino)-3-(3-(3-methyl-2-oxoimidazolidin-1-yl)piperidin-1-yl)-1,2,4-triazin-6-carboxamide], in that order: less than 1 nM and 2.26 nM.
`Cc1cc(N2CCC(CN3CCN(c4ccc(Nc5nc(N6CCC[C@@H](N7CCN(C)C7=O)C6)nnc5C(N)=O)cc4F)CC3)CC2)ccc1NC1CCC(=O)NC1=O` (stereo partly drawn) [Compound 207, 5-((4-(4-((1-(4-((2,6-dioxopiperidin-3-yl)amino)-3-methylphenyl)piperidin-4-yl)methyl)piperazin-1-yl)-3-fluorophenyl)amino)-3-((R)-3-(3-methyl-2-oxoimidazolidin-1-yl)piperidin-1-yl)-1,2,4-triazin-6-carboxamide] displayed a DC50 on BTK of less than 1 nM. Also, the IC50 with OCI-LY10 cells amounted to 0.23 nM.
Consider `CN1CCN([C@@H]2CCCN(c3nnc(C(N)=O)c(Nc4ccc(N5CCN(CC6CCN(c7ccc(C(=O)NC8CCC(=O)NC8=O)c8c7OCCO8)CC6)CC5)c(F)c4)n3)C2)C1=O` (stereo partly drawn) [Compound 183, 5-((4-(4-((1-(8-((2,6-dioxopiperidin-3-yl)carbamoyl)-2,3-dihydrobenzo[b][1,4]dioxan-5-yl)piperidin-4-yl)methyl)piperazin-1-yl)-3-fluorophenyl)amino)-3-((R)-3-(3-methyl-2-oxoimidazolidin-1-yl)piperidin-1-yl)-1,2,4-triazin-6-carboxamide], for which the DC50 on BTK is less than 1 nM. This molecule also had an IC50 in the experiment with Mino cells of 4.85 nM.
For `CN1CCN([C@@H]2CCCN(c3nnc(C(N)=O)c(Nc4ccc(N5CCN(CC6CCN(c7ccc(NC8CCC(=O)NC8=O)c8c7OCO8)CC6)CC5)c(F)c4)n3)C2)C1=O` (stereo partly drawn) [Compound 209, 5-((4-(4-((1-(7-((2,6-dioxopiperidin-3-yl)amino)benzo[d][1,3]dioxacyclopent-4-yl)piperidin-4-yl)methyl)piperazin-1-yl)-3-fluorophenyl)amino)-3-((R)-3-(3-methyl-2-oxoimidazolidin-1-yl)piperidin-1-yl)-1,2,4-triazin-6-carboxamide], in that order: less than 1 nM and 3.42 nM.
Take `CN1CCN([C@@H]2CCCN(c3nnc(C(N)=O)c(Nc4ccc(N5CCN(CC6CCN(c7ccc(N8CCC(=O)NC8=O)c(F)c7F)CC6)CC5)c(F)c4)n3)C2)C1=O` [Compound 185, (R)-5-((4-(4-((1-(4-(2,4-dioxotetrahydropyrimidin-1(2H)-yl)-2,3-difluorophenyl)piperidin-4-yl)methyl)piperazin-1-yl)-3-fluorophenyl)amino)-3-(3-(3-methyl-2-oxoimidazolidin-1-yl)piperidin-1-yl)-1,2,4-triazin-6-carboxamide]: the DC50 on BTK is less than 1 nM. The molecule also gave an IC50 in the experiment with OCI-LY10 cells of 1.36 nM.
